Values of other authors as cited in patent publication US20150250776A1, “COMPOSITIONS AND METHODS FOR ORAL DELIVERY OF ENCAPSULATED 3-AMINOPYRIDINE-2-CARBOXALDEHYDE PARTICLES” (NANOTHERAPEUTICS, INC., priority 2014, published 2015).

What was measured:
tumor cell lines = tumor cell lines compared with a fibroblast cell line
[1] = test system: cell lines selected for resistance to hydroxyurea

solubility in DMSO (DMSO): soluble | solubility in aqueous solutions (aqueous solutions): poor solubility
Compound: Nc1cccnc1C=O [3-AP, 3-aminopyridine-2-carboxaldehyde]
cytotoxic effects, tumor versus fibroblast cell line (tumor cell lines): preferential cytotoxic effects | activity in hydroxyurea-resistant cell lines [1]: active
